Among the data in patent US12215173B2, “Kappa opioid receptor peptide amide ligands” (priority 2019, dated 2025) are IC50 and EC50 values, retold here.

In general, IC50 refers to the concentration that inhibits the measured activity by half. As usually defined, the EC50 is the midpoint of the concentration-response curve.

For test [1], the target named is recombinant human kappa (KOR) opioid receptor (Homo sapiens (Human), UniProt P41145). The test can be described thus: biochemical. The class given is binding. The following applies: HEK293 cell membranes, 0.5 nM [3H]diprenorphine.
Test [2] deals with recombinant human mu (MOR) opioid receptor (Homo sapiens (Human), UniProt P35372). Briefly: Opioid receptor radioligand binding assay, MOR.
Test [3] deals with recombinant human delta (DOR) opioid receptor (Homo sapiens (Human), UniProt P41143). Briefly: Opioid receptor radioligand binding assay, DOR.
Sequence of recombinant human delta (DOR) opioid receptor (P41143 whole entry, looked up): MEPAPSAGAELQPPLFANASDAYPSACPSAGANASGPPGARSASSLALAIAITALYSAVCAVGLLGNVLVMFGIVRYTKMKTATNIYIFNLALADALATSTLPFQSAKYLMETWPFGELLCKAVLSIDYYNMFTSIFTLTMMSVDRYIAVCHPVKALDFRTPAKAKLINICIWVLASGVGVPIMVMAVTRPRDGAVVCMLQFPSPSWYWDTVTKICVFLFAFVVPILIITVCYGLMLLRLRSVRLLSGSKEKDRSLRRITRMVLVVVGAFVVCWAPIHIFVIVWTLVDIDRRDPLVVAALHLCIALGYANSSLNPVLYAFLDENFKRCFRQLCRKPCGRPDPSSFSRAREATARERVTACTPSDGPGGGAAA
The target of test [4] is Opioid Kappa Receptor (recombinant human, HEK293 cells) (Homo sapiens (Human), UniProt P41145). The test can be described thus: cell-based. The conditions noted are these: read-out: EC50.
[5] abbreviates: HEK293 cell membranes, 0.5 nM [3H]DAMGO, read-out: MOR, IC50.
[6] abbreviates: HEK293 cell membranes, 0.5 nM [3H]DADLE, read-out: DOR, IC50.

The structures appear in SMILES notation. Where two headings read alike, the source gives them in different places. Square brackets hold non-standard residues; d marks the D form. Peptide text beside a SMILES is read from it. * marks the point of attachment. Piperidin1yl(4-NH2,4-CO2Me) = COC(=O)C1(N)CCN(*)CC1; dAla(cPr) = N[C@H](CC1CC1)C(=O)O Bounds are passed on as bounds.

As for `COCCOC(=O)C1(N)CCN(C(=O)[C@@H](CCCCN)NC(=O)[C@@H](CC(C)C)NC(=O)[C@@H](Cc2ccccc2)NC(=O)[C@H](N)Cc2ccccc2)C1` (stereo partly shown) [Compound 45], the figures for the concentration for half-maximal inhibition (IC50) in test [1], in test [2] (setting [5]) and in test [3] (setting [6]) were 0.00033 µM, 7.37 µM and greater than 10 µM, respectively. In test [4], the EC50 worked out at 0.0302 µM.
Consider `CC(C)C[C@@H](NC(=O)[C@@H](Cc1ccccc1)NC(=O)[C@H](N)Cc1ccccc1)C(=O)N[C@H](CCCCN)C(=O)N1CCC2(CC1)NC(=O)NC2=O` [Compound 71], for which the IC50 was 0.00016 µM in test [1]; greater than 10 µM in test [2] (read-out: MOR, IC50); greater than 10 µM in test [3] (setting [6]). Moreover, the concentration for a half-maximal effect (EC50) in test [4] turned out to be 0.0054 µM.
With `CNC(=O)NC1CCN(C(=O)[C@@H](CCCCN)NC(=O)[C@@H](CC(C)C)NC(=O)[C@@H](Cc2ccccc2)NC(=O)[C@H](N)Cc2ccccc2)CC1` [Compound 13-60], the IC50 in test [1] is 0.00042 µM; in test [2], greater than 10 µM; in test [3] it was greater than 10 µM. For the same molecule, the half-maximal effective concentration (EC50) in test [4] came to 0.0143 µM.
In the case of `CC(C)C[C@@H](NC(=O)[C@@H](Cc1ccccc1)NC(=O)[C@H](N)Cc1ccccc1)C(=O)N[C@H](CCCCN)C(=O)N1CCN(C(=O)N(C)C)CC1` [Compound 13-59], the half-maximal inhibitory concentration (IC50) in test [1] is 0.00036 µM; in test [2] (setting [5]), greater than 10 µM; in test [3] (setting [6]), greater than 10 µM. Besides, the half-maximal effective concentration (EC50) in test [4] was determined as 0.0143 µM.
With `CCOC(=O)C1(N)CCN(C(=O)[C@@H](CCCCN)NC(=O)[C@@H](CC(C)C)NC(=O)[C@@H](Cc2ccccc2)NC(=O)[C@H](N)Cc2ccccc2)C1` (stereo partly shown) [Compound 35], the IC50 in test [1] was 0.00019 µM; in test [2], 8.18 µM; in test [3], greater than 10 µM. Moreover, in test [4], the EC50 turned out to be 0.0117 µM.
As for `CC(C)C[C@@H](NC(=O)[C@@H](Cc1ccccc1)NC(=O)[C@H](N)Cc1ccccc1)C(=O)N[C@H](CCCCN)C(=O)N1CCC(NC(=O)[C@@H](N)CC(N)=O)CC1` [Compound 13-42], the results for the IC50 in test [1], in test [2] (setting [5]) and in test [3] (setting [6]) were 0.00048 µM, greater than 10 µM and greater than 10 µM, respectively. For the same molecule, in test [4], the EC50 came to 0.00843 µM.
On to `CC(C)C[C@@H](NC(=O)[C@@H](Cc1ccccc1)NC(=O)[C@H](N)Cc1ccccc1)C(=O)N[C@H](CCCCN)C(=O)N1CCC(N)(C(=O)OCCO)C1` (stereo partly shown) [Compound 50], for which the results for the IC50 in test [1], in test [2] (setting [5]) and in test [3] (setting [6]) were 0.00039 µM, 7.53 µM and greater than 10 µM, respectively. Also, in test [4], the EC50 is 0.00907 µM.
The matching figures for `CC(C)C[C@@H](NC(=O)[C@@H](Cc1ccccc1)NC(=O)[C@H](N)Cc1ccccc1)C(=O)N[C@H](CCCCN)C(=O)N1CCOCCOCCOCC1` [Compound 13-15]: 0.00041 µM, greater than 10 µM, greater than 10 µM and 0.0515 µM.
On to `CC(C)C[C@@H](NC(=O)[C@@H](Cc1ccccc1)NC(=O)[C@H](N)Cc1ccccc1)C(=O)N[C@H](CCCCN)C(=O)N1CCC(N)(C(=O)OC2CC2)C1` (stereo partly shown) [Compound 40], for which the IC50 in test [1] was 0.00041 µM; in test [2], greater than 10 µM; in test [3], greater than 1 µM. In addition, in test [4], the concentration giving a half-maximal response (EC50) was 0.0119 µM.
As for `CC(C)C[C@@H](NC(=O)[C@@H](Cc1ccccc1)NC(=O)[C@H](N)Cc1ccccc1)C(=O)N[C@H](CCCCN)C(=O)N1CC(=O)NC(=O)C1` [Compound 13-63], the 50% inhibitory concentration (IC50) in test [1] is 0.00181 µM; in test [2] (setting [5]) it was greater than 10 µM; in test [3] (setting [6]) it was greater than 10 µM. Further, the EC50 in test [4] was determined as 0.0052 µM.
On to `COC(=O)C1(N)CCN(C(=O)[C@@H](CCCCN)NC(=O)[C@@H](CC(C)C)NC(=O)[C@@H](Cc2ccccc2)NC(=O)[C@H](N)Cc2ccccc2)C1` (stereo partly shown) [Compound 13-62], for which the 50% inhibitory concentration (IC50) in test [1] is 0.0002 µM; in test [2], greater than 10 µM; in test [3], greater than 10 µM. In addition, the concentration for a half-maximal effect (EC50) in test [4] is 0.00296 µM.
On to `CC(C)C[C@@H](NC(=O)[C@@H](Cc1ccccc1)NC(=O)[C@H](N)Cc1ccccc1)C(=O)N[C@H](CCCCN)C(=O)N1CCC(N)(C(=O)OCCN)C1` (stereo partly shown) [Compound 55], for which the IC50 in test [1] is 0.00045 µM; in test [2] (setting [5]) it was 8.53 µM; in test [3] (setting [6]), greater than 10 µM. In test [4], the EC50 came out at 0.00936 µM.
The matching figures for `COC(=O)C1(N)CCN(C(=O)[C@@H](CCCNC(=N)N)NC(=O)[C@@H](CC2CC2)NC(=O)[C@@H](Cc2ccccc2)NC(=O)[C@H](N)Cc2ccccc2)CC1` [Compound 126] (H-[dF][dF][dAla(cPr)][dR]-{Piperidin1yl(4-NH2,4-CO2Me)}): 0.00036 µM, 3.03 µM, greater than 10 µM and 0.00681 µM.
The matching figures for `CC(C)C[C@@H](NC(=O)[C@@H](Cc1ccccc1)NC(=O)[C@H](N)Cc1ccccc1)C(=O)N[C@H](CCCCN)C(=O)N1CCNC(=O)C1` [Compound 13-14]: 0.00021 µM, greater than 10 µM, greater than 10 µM and 0.0129 µM.
As for `CC(C)C[C@@H](NC(=O)[C@@H](Cc1ccccc1)NC(=O)[C@H](N)Cc1ccccc1)C(=O)N[C@H](CCCCN)C(=O)N1CCC(NC(=O)C[C@H](N)C(N)=O)CC1` [Compound 13-38], the figures for the half-inhibitory concentration (IC50) in test [1], in test [2] and in test [3] were 0.0003 µM, greater than 10 µM and greater than 10 µM, respectively. The EC50 in test [4] was found to be 0.00608 µM.
For the molecule `CC(C)C[C@@H](NC(=O)[C@@H](Cc1ccccc1)NC(=O)[C@H](N)Cc1ccccc1)C(=O)N[C@H](CCCCN)C(=O)N1CCN(C(=O)NC2CC2)CC1` [Compound 13-48], the IC50 in test [1] is 0.00036 µM; in test [2], greater than 10 µM; in test [3], greater than 10 µM. Further, in test [4], the concentration for a half-maximal effect (EC50) amounted to 0.00569 µM.
Turning to `CNCCOC(=O)C1(N)CCN(C(=O)[C@@H](CCCCN)NC(=O)[C@@H](CC(C)C)NC(=O)[C@@H](Cc2ccccc2)NC(=O)[C@H](N)Cc2ccccc2)C1` (stereo partly shown) [Compound 60], the results for the IC50 in test [1], in test [2] (setting [5]) and in test [3] (setting [6]) were 0.00094 µM, greater than 10 µM and greater than 10 µM, respectively. Moreover, in test [4], the EC50 came out at 0.00719 µM.
As to `CCNC(=O)C(=O)N1CCC(NC(=O)[C@@H](CCCCN)NC(=O)[C@@H](CC(C)C)NC(=O)[C@@H](Cc2ccccc2)NC(=O)[C@H](N)Cc2ccccc2)CC1` [Compound 13-36], the IC50 in test [1] is 0.00049 µM; in test [2] (setting [5]) it was greater than 10 µM; in test [3] (setting [6]), greater than 10 µM. In test [4], the EC50 came to 0.0377 µM.
Regarding `COC(=O)/C=C/C(=O)N1CCC(NC(=O)[C@@H](CCCCN)NC(=O)[C@@H](CC(C)C)NC(=O)[C@@H](Cc2ccccc2)NC(=O)[C@H](N)Cc2ccccc2)CC1` [Compound 13-18], the concentration for half-maximal inhibition (IC50) in test [1] is 0.002 µM; in test [2] (setting [5]), greater than 10 µM; in test [3] (setting [6]), greater than 10 µM. For the same molecule, the concentration for a half-maximal effect (EC50) in test [4] came out at 0.0393 µM.
With `CCOC(=O)C(=O)NC1CCN(C(=O)[C@@H](CCCCN)NC(=O)[C@@H](CC(C)C)NC(=O)[C@@H](Cc2ccccc2)NC(=O)[C@H](N)Cc2ccccc2)CC1` [Compound 13-31], the half-maximal inhibitory concentration (IC50) in test [1] was 0.00028 µM; in test [2] (setting [5]), 0.172 µM; in test [3] (setting [6]), greater than 10 µM. The EC50 in test [4] worked out at 0.0179 µM.
In the case of `CNC(=O)C(=O)N1CCN(C(=O)[C@@H](CCCCN)NC(=O)[C@@H](CC(C)C)NC(=O)[C@@H](Cc2ccccc2)NC(=O)[C@H](N)Cc2ccccc2)CC1` [Compound 13-27], the results for the half-inhibitory concentration (IC50) in test [1], in test [2] (setting [5]) and in test [3] (setting [6]) were 0.00053 µM, greater than 10 µM and greater than 10 µM, respectively. For the same molecule, in test [4], the EC50 came to 0.012 µM.
Consider `CC(C)C[C@@H](NC(=O)[C@@H](Cc1ccccc1)NC(=O)[C@H](N)Cc1ccccc1)C(=O)N[C@H](CCCCN)C(=O)NCCOCCOCCO` [Compound 13-52], for which the 50% inhibitory concentration (IC50) in test [1] is 0.00102 µM; in test [2] (setting [5]), greater than 10 µM; in test [3] (setting [6]), greater than 10 µM. The EC50 in test [4] worked out at 0.0121 µM.
With `CC(C)C[C@@H](NC(=O)[C@@H](Cc1ccccc1)NC(=O)[C@H](N)Cc1ccccc1)C(=O)N[C@H](CCCCN)C(=O)NCc1ccncc1` [Compound 13-53], the IC50 was 0.00201 µM in test [1], 8.75 µM in test [2] and greater than 10 µM in test [3]. Also, the EC50 in test [4] came to 0.0126 µM.
The matching figures for `CC(C)C[C@@H](NC(=O)[C@@H](Cc1ccccc1)NC(=O)[C@H](N)Cc1ccccc1)C(=O)N[C@H](CCCCN)C(=O)NCc1n[nH]c(=O)[nH]1` [Compound 13-45]: 0.00043 µM, greater than 10 µM, greater than 10 µM and 0.00153 µM.
Consider `CC(C)C[C@@H](NC(=O)[C@@H](Cc1ccccc1)NC(=O)[C@H](N)Cc1ccccc1)C(=O)N[C@H](CCCCN)C(=O)NCCOCCO` [Compound 13-51], for which the IC50 is 0.00027 µM in test [1], 0.349 µM in test [2] (setting [5]) and greater than 10 µM in test [3] (setting [6]). For the same molecule, the half-maximal effective concentration (EC50) in test [4] was 0.00515 µM.
The matching figures for `CCOC(=O)C(N)C(=O)NC1CCN(C(=O)[C@@H](CCCCN)NC(=O)[C@@H](CC(C)C)NC(=O)[C@@H](Cc2ccccc2)NC(=O)[C@H](N)Cc2ccccc2)CC1` (stereo partly shown) [Compound 13-39]: 0.00023 µM, greater than 10 µM, greater than 10 µM and 0.0147 µM.
The matching figures for `CC(C)C[C@@H](NC(=O)[C@@H](Cc1ccccc1)NC(=O)[C@H](N)Cc1ccccc1)C(=O)N[C@H](CCCCN)C(=O)N1CCN(C(=O)C(=O)NC2CC2)CC1` [Compound 13-23]: 0.00079 µM, 0.318 µM, greater than 10 µM and 0.00858 µM.
As to `COC(=O)/C=C/C(=O)NC1CCN(C(=O)[C@@H](CCCCN)NC(=O)[C@@H](CC(C)C)NC(=O)[C@@H](Cc2ccccc2)NC(=O)[C@H](N)Cc2ccccc2)CC1` [Compound 13-19], the IC50 in test [1] was 0.00033 µM; in test [2] (setting [5]) it was greater than 0.727 µM; in test [3] (setting [6]), greater than 10 µM. The EC50 in test [4] came out at 0.0758 µM.
